PMC5218480 (PLoS ONE, 2017)

Test system: MV-4-11 cells
Assay: Gene expression microarray analysis (Affymetrix PrimeView) and GSEA
Type: cell-based, human
Design: RFU PODN (11730768_x_at) / Fold change /veh PODN (11730768_x_at) / RFU LINC00158 (11744669_a_at) / Fold change /veh LINC00158 (11744669_a_at) / RFU DUSP10 (11751237_a_at) / Fold change /veh DUSP10 (11751237_a_at) / RFU ID3 (11757404_x_at) / Fold change /veh ID3 (11757404_x_at) / RFU PLEKHG5 (11737974_s_at) / Fold change /veh PLEKHG5 (11737974_s_at) / RFU LRRC4B (11730491_at) / Fold change /veh LRRC4B (11730491_at) / RFU GIMAP4 (11747438_a_at) / Fold change /veh GIMAP4 (11747438_a_at) / RFU KRT8 (11758183_x_at) / Fold change /veh KRT8 (11758183_x_at) / RFU CNN1 (11734310_a_at) / Fold change /veh CNN1 (11734310_a_at) / RFU VPS37D (11726825_at) / Fold change /veh VPS37D (11726825_at) / RFU C10orf10 (11716522_x_at) / Fold change /veh C10orf10 (11716522_x_at) / RFU KIR2DL2 /// KIR2DL4 /// KIR2DL5A /// KIR2DL5B /// KIR2DS1 /// KIR2DS2 /// KIR2DS3 /// KIR2DS4 /// KIR3DL3 /// KIR3DL3 /// KIR3DS1 (11738374_at) / Fold change /veh KIR2DL2 /// KIR2DL4 /// KIR2DL5A /// KIR2DL5B /// KIR2DS1 /// KIR2DS2 /// KIR2DS3 /// KIR2DS4 /// KIR3DL3 /// KIR3DL3 /// KIR3DS1 (11738374_at) / RFU C1QL1 (11718748_at) / Fold change /veh C1QL1 (11718748_at) / RFU TMPRSS4 (11747572_a_at) / Fold change /veh TMPRSS4 (11747572_a_at) / RFU HAMP (11756126_x_at) / Fold change /veh HAMP (11756126_x_at) / RFU RNFT2 (11725882_a_at) / Fold change /veh RNFT2 (11725882_a_at) / RFU NR4A2 (11747474_a_at) / Fold change /veh NR4A2 (11747474_a_at) / RFU ABCC12 (11746883_a_at) / Fold change /veh ABCC12 (11746883_a_at) / RFU TMEM136 (11760407_x_at) / Fold change /veh TMEM136 (11760407_x_at) / RFU CLDN22 /// WWC2 (11732394_at) / Fold change /veh CLDN22 /// WWC2 (11732394_at) / RFU HLA-DPB1 (11760878_x_at) / Fold change /veh HLA-DPB1 (11760878_x_at) / RFU SPINT1 (11716480_a_at) / Fold change /veh SPINT1 (11716480_a_at) / RFU GAP43 (11754022_s_at) / Fold change /veh GAP43 (11754022_s_at) / RFU A4GNT (11735810_at) / Fold change /veh A4GNT (11735810_at) / RFU PRB3 (11715151_x_at) / Fold change /veh PRB3 (11715151_x_at) / RFU TUBB4B (11761932_at) / Fold change /veh TUBB4B (11761932_at) / RFU CAPN14 (11732068_a_at) / Fold change /veh CAPN14 (11732068_a_at) / RFU TMCC2 (11721928_a_at) / Fold change /veh TMCC2 (11721928_a_at) / RFU IRGQ (11745062_a_at) / Fold change /veh IRGQ (11745062_a_at) / RFU FAM174B (11720279_a_at) / Fold change /veh FAM174B (11720279_a_at) / RFU TMPRSS4 (11748680_a_at) / Fold change /veh TMPRSS4 (11748680_a_at) / RFU FAM212B (11763350_a_at) / Fold change /veh FAM212B (11763350_a_at) / RFU PLEKHG5 (11743358_a_at) / Fold change /veh PLEKHG5 (11743358_a_at) / RFU ZSCAN30 (11745921_a_at) / Fold change /veh ZSCAN30 (11745921_a_at) / RFU CMKLR1 (11741424_a_at) / Fold change /veh CMKLR1 (11741424_a_at) / RFU LOC101060620 /// MAPK8IP1 (11723275_at) / Fold change /veh LOC101060620 /// MAPK8IP1 (11723275_at) / RFU SPTSSB (11747773_x_at) / Fold change /veh SPTSSB (11747773_x_at) / RFU PRSS12 (11739890_at) / Fold change /veh PRSS12 (11739890_at) / RFU BIN1 (11741810_x_at) / Fold change /veh BIN1 (11741810_x_at) / RFU WNT11 (11732464_a_at) / Fold change /veh WNT11 (11732464_a_at) / RFU C10orf10 (11716521_a_at) / Fold change /veh C10orf10 (11716521_a_at) / RFU C5orf56 (11738089_at) / Fold change /veh C5orf56 (11738089_at) / RFU CYB561 (11721691_x_at) / Fold change /veh CYB561 (11721691_x_at) / RFU ANKRD19P (11752326_a_at) / Fold change /veh ANKRD19P (11752326_a_at) / RFU OR2T12 /// OR2T33 /// OR2T8 (11738714_s_at) / Fold change /veh OR2T12 /// OR2T33 /// OR2T8 (11738714_s_at) / RFU VCAN (11748164_a_at) / Fold change /veh VCAN (11748164_a_at) / RFU JSRP1 (11732532_at) / Fold change /veh JSRP1 (11732532_at) / RFU KRTAP10-11 (11738290_x_at) / Fold change /veh KRTAP10-11 (11738290_x_at) / RFU MYO3A (11730013_a_at) / Fold change /veh MYO3A (11730013_a_at) / RFU EBF3 (11725865_a_at) / Fold change /veh EBF3 (11725865_a_at) / RFU CAMK2N1 (11719241_x_at) / Fold change /veh CAMK2N1 (11719241_x_at) / RFU C5orf56 (11738088_a_at) / Fold change /veh C5orf56 (11738088_a_at) / RFU OLFML3 (11715873_a_at) / Fold change /veh OLFML3 (11715873_a_at) / RFU LOC100653217 /// NTM (11731650_a_at) / Fold change /veh LOC100653217 /// NTM (11731650_a_at) / RFU MAPK11 (11762145_a_at) / Fold change /veh MAPK11 (11762145_a_at) / RFU FIZ1 (11724087_x_at) / Fold change /veh FIZ1 (11724087_x_at) / RFU OASL (11726364_x_at) / Fold change /veh OASL (11726364_x_at) / RFU SOX15 (11748057_x_at) / Fold change /veh SOX15 (11748057_x_at) / RFU CD79A (11719716_a_at) / Fold change /veh CD79A (11719716_a_at) / RFU HIST1H1D (11736915_at) / Fold change /veh HIST1H1D (11736915_at) / RFU CASKIN2 (11723855_a_at) / Fold change /veh CASKIN2 (11723855_a_at) / RFU LOC730098 (11760151_x_at) / Fold change /veh LOC730098 (11760151_x_at) / RFU OR4N2 (11742367_at) / Fold change /veh OR4N2 (11742367_at) / RFU PRRT2 (11749266_a_at) / Fold change /veh PRRT2 (11749266_a_at) / RFU SNX32 (11753110_a_at) / Fold change /veh SNX32 (11753110_a_at) / RFU CDHR5 (11726645_a_at) / Fold change /veh CDHR5 (11726645_a_at) / RFU RCAN1 (11760418_a_at) / Fold change /veh RCAN1 (11760418_a_at) / RFU FAM167A (11723789_a_at) / Fold change /veh FAM167A (11723789_a_at) / RFU FAM26E (11764081_at) / Fold change /veh FAM26E (11764081_at) / RFU ISYNA1 (11749810_s_at) / Fold change /veh ISYNA1 (11749810_s_at) / RFU ACY1 (11761880_at) / Fold change /veh ACY1 (11761880_at) / RFU 11764098_at / Fold change /veh 11764098_at / RFU SAMD14 (11745864_x_at) / Fold change /veh SAMD14 (11745864_x_at) / RFU NPB (11741838_a_at) / Fold change /veh NPB (11741838_a_at) / RFU TMPRSS6 (11731388_a_at) / Fold change /veh TMPRSS6 (11731388_a_at) / RFU KRTAP10-2 (11738614_at) / Fold change /veh KRTAP10-2 (11738614_at) / RFU ARHGAP8 /// PRR5-ARHGAP8 (11727945_x_at) / Fold change /veh ARHGAP8 /// PRR5-ARHGAP8 (11727945_x_at) / RFU KRTAP5-7 /// NADSYN1 (11734609_at) / Fold change /veh KRTAP5-7 /// NADSYN1 (11734609_at) / RFU RASL12 (11751679_a_at) / Fold change /veh RASL12 (11751679_a_at) / RFU CDKN2B (11736163_a_at) / Fold change /veh CDKN2B (11736163_a_at) / RFU PRF1 (11729649_at) / Fold change /veh PRF1 (11729649_at) / RFU, ZNF638 /// ZNF638-IT1 / Fold change vs veh, ZNF638 /// ZNF638-IT1 / RFU, PANK3 / Fold change vs veh, PANK3 / RFU, SH3YL1 / Fold change vs veh, SH3YL1 / RFU, ZEB2 / Fold change vs veh, ZEB2 / RFU, NRIP1 / Fold change vs veh, NRIP1 / RFU, PTTG1IP / Fold change vs veh, PTTG1IP / RFU, CAPN2 / Fold change vs veh, CAPN2 / RFU, MED14 / Fold change vs veh, MED14 / RFU, SNORA58 / Fold change vs veh, SNORA58 / RFU, C1orf63 / Fold change vs veh, C1orf63 / RFU, LRRFIP1 / Fold change vs veh, LRRFIP1 / RFU, NDUFAF7 / Fold change vs veh, NDUFAF7 / RFU, SLC12A2 / Fold change vs veh, SLC12A2 / RFU, IBTK / Fold change vs veh, IBTK / RFU, ESF1 / Fold change vs veh, ESF1 / Fold change vs veh, TMEM50B / RFU, TAOK1 / Fold change vs veh, TAOK1 / RFU, ACBD3 / Fold change vs veh, ACBD3 / RFU, TMA16 / Fold change vs veh, TMA16 / RFU, RWDD3 / Fold change vs veh, RWDD3 / RFU, BCAT1 / Fold change vs veh, BCAT1 / RFU, EDEM3 / Fold change vs veh, EDEM3 / RFU, TMEM33 / Fold change vs veh, TMEM33 / RFU, WDR75 / Fold change vs veh, WDR75 / RFU, AHCTF1 / Fold change vs veh, AHCTF1 / RFU, TFRC / Fold change vs veh, TFRC / RFU, ZDHHC17 / Fold change vs veh, ZDHHC17 / RFU, NOM1 / Fold change vs veh, NOM1 / RFU, ARL8B / Fold change vs veh, ARL8B / RFU, ZBTB11 / Fold change vs veh, ZBTB11 / RFU, TAMM41 / Fold change vs veh, TAMM41 / RFU, KIAA1704 /// LOC100996395 / Fold change vs veh, KIAA1704 /// LOC100996395 / RFU, ING1 / Fold change vs veh, ING1 / RFU, TRMT61B / Fold change vs veh, TRMT61B / RFU, FUBP3 / Fold change vs veh, FUBP3 / RFU, TP53 / Fold change vs veh, TP53 / RFU, TNKS2 / Fold change vs veh, TNKS2 / RFU, ZFP14 / Fold change vs veh, ZFP14 / RFU, ACTR2 / Fold change vs veh, ACTR2 / RFU, PPP3R1 / Fold change vs veh, PPP3R1 / RFU, PIK3R1 / Fold change vs veh, PIK3R1 / RFU, HNRNPA1 / Fold change vs veh, HNRNPA1 / RFU, RNF170 / Fold change vs veh, RNF170 / RFU, ZNF28 / Fold change vs veh, ZNF28 / RFU, RNGTT / Fold change vs veh, RNGTT / RFU, OGT / Fold change vs veh, OGT / RFU, BRD1 / Fold change vs veh, BRD1 / RFU, MARS / Fold change vs veh, MARS / RFU, ZNF655 / Fold change vs veh, ZNF655 / RFU, FAHD1 / Fold change vs veh, FAHD1 / RFU, BDP1 / Fold change vs veh, BDP1 / RFU, LRRCC1 / Fold change vs veh, LRRCC1 / RFU, ARID1A / Fold change vs veh, ARID1A / RFU, ZNF146 / Fold change vs veh, ZNF146 / RFU, ZNF330 / Fold change vs veh, ZNF330 / RFU, GPN3 / Fold change vs veh, GPN3 / RFU, C9orf123 / Fold change vs veh, C9orf123 / RFU, N4BP2L2 / Fold change vs veh, N4BP2L2 / RFU, ARFIP1 / Fold change vs veh, ARFIP1 / RFU, FAM179B / Fold change vs veh, FAM179B / RFU, BCL10 / Fold change vs veh, BCL10 / RFU, UHRF1BP1L / Fold change vs veh, UHRF1BP1L / RFU, BET1 / Fold change vs veh, BET1 / RFU, CNOT2 / Fold change vs veh, CNOT2 / RFU, ZNF268 / Fold change vs veh, ZNF268 / Fold change vs veh, ZNF507 / RFU, DGCR2 / Fold change vs veh, DGCR2 / RFU, WDSUB1 / Fold change vs veh, WDSUB1 / Fold change vs veh, HSP90B1 /// MIR3652 / RFU, ADSS / Fold change vs veh, ADSS / RFU, GK / Fold change vs veh, GK / RFU, ZNF148 / Fold change vs veh, ZNF148 / RFU, TAF9 / Fold change vs veh, TAF9 / RFU, SLC1A5 / Fold change vs veh, SLC1A5 / RFU, SLMO2 / Fold change vs veh, SLMO2 / RFU, ABCC4 / Fold change vs veh, ABCC4 / RFU, LOC101060439 /// RAP1B / Fold change vs veh, LOC101060439 /// RAP1B / RFU, RFX7 / Fold change vs veh, RFX7 / RFU, GTPBP10 / Fold change vs veh, GTPBP10 / RFU, CNEP1R1 / Fold change vs veh, CNEP1R1 / RFU, BIVM-ERCC5 /// ERCC5 / Fold change vs veh, BIVM-ERCC5 /// ERCC5 / RFU, ILF3 / Fold change vs veh, ILF3 / RFU 11762660_at / Fold change /veh 11762660_at / RFU VCAN (11757783_s_at) / Fold change /veh VCAN (11757783_s_at) / RFU DDX43 (11728927_at) / Fold change /veh DDX43 (11728927_at) / RFU KRT8 (11758188_x_at) / Fold change /veh KRT8 (11758188_x_at) / RFU NKD1 (11759106_at) / Fold change /veh NKD1 (11759106_at) / RFU SRD5A1 (11742802_a_at) / Fold change /veh SRD5A1 (11742802_a_at) / RFU TPSAB1 /// TPSB2 (11721975_s_at) / Fold change /veh TPSAB1 /// TPSB2 (11721975_s_at) / RFU GSTM3 (11746129_a_at) / Fold change /veh GSTM3 (11746129_a_at) / RFU IL23R (11737362_x_at) / Fold change /veh IL23R (11737362_x_at) / RFU TMEM51 (11727254_a_at) / Fold change /veh TMEM51 (11727254_a_at) / RFU PIWIL2 (11732686_x_at) / Fold change /veh PIWIL2 (11732686_x_at) / RFU ORM1 (11744905_x_at) / Fold change /veh ORM1 (11744905_x_at) / RFU CCDC152 (11743942_at) / Fold change /veh CCDC152 (11743942_at) / RFU ECM1 (11717891_a_at) / Fold change /veh ECM1 (11717891_a_at) / RFU IL23R (11748794_a_at) / Fold change /veh IL23R (11748794_a_at) / RFU TNFAIP8L3 (11732012_x_at) / Fold change /veh TNFAIP8L3 (11732012_x_at) / RFU MBOAT4 (11741988_at) / Fold change /veh MBOAT4 (11741988_at) / RFU 11764193_at / Fold change /veh 11764193_at / RFU TMEM53 (11763286_at) / Fold change /veh TMEM53 (11763286_at) / RFU MAGEB2 (11727129_at) / Fold change /veh MAGEB2 (11727129_at) / RFU TMEM200A (11744735_a_at) / Fold change /veh TMEM200A (11744735_a_at) / RFU CCDC152 (11751479_a_at) / Fold change /veh CCDC152 (11751479_a_at) / RFU FAM211A (11726209_a_at) / Fold change /veh FAM211A (11726209_a_at) / RFU RGS16 (11746705_a_at) / Fold change /veh RGS16 (11746705_a_at) / RFU VCAN (11755009_s_at) / Fold change /veh VCAN (11755009_s_at) / RFU RHOB (11743442_s_at) / Fold change /veh RHOB (11743442_s_at) / RFU RGS16 (11720943_a_at) / Fold change /veh RGS16 (11720943_a_at) / RFU RGS16 (11720944_at) / Fold change /veh RGS16 (11720944_at) / RFU, VPS4B / Fold change vs veh, VPS4B / RFU, CREB1 / Fold change vs veh, CREB1 / RFU, DNAJC13 / Fold change vs veh, DNAJC13 / RFU, GNAQ / Fold change vs veh, GNAQ / RFU, CDK5R1 / Fold change vs veh, CDK5R1 / RFU, ZRANB3 / Fold change vs veh, ZRANB3 / RFU, CUL4A / Fold change vs veh, CUL4A / RFU, CCNY / Fold change vs veh, CCNY / RFU, UFL1 / Fold change vs veh, UFL1 / RFU, COG3 / Fold change vs veh, COG3 / RFU, DIAPH2 / Fold change vs veh, DIAPH2 / RFU, SKA2 / Fold change vs veh, SKA2 / RFU, AFF3 / Fold change vs veh, AFF3 / RFU, LMF1 / Fold change vs veh, LMF1 / RFU, IPO11 / Fold change vs veh, IPO11 / RFU, DFFB / Fold change vs veh, DFFB / RFU, FOXP1 / Fold change vs veh, FOXP1 / RFU, CARD8 / Fold change vs veh, CARD8 / RFU, STRN3 / Fold change vs veh, STRN3 / RFU, ADK / Fold change vs veh, ADK / RFU, RASSF2 / Fold change vs veh, RASSF2 / RFU, WIPF1 / Fold change vs veh, WIPF1 / RFU, LARP1B / Fold change vs veh, LARP1B / RFU, RASA1 / Fold change vs veh, RASA1 / RFU, RB1 / Fold change vs veh, RB1 / RFU, PPFIA1 / Fold change vs veh, PPFIA1 / RFU, MAT2A / Fold change vs veh, MAT2A / RFU, CCT5 / Fold change vs veh, CCT5 / RFU, WDR92 / Fold change vs veh, WDR92 / RFU, CUX1 / Fold change vs veh, CUX1 / RFU, TTC7A / Fold change vs veh, TTC7A / RFU, TMEM135 / Fold change vs veh, TMEM135 / RFU, DEPTOR / Fold change vs veh, DEPTOR / RFU, CPM / Fold change vs veh, CPM / RFU, DNAJB6 / Fold change vs veh, DNAJB6 / RFU, CACNA2D3 / Fold change vs veh, CACNA2D3 / RFU, DTX4 / Fold change vs veh, DTX4 / RFU, TFCP2 / Fold change vs veh, TFCP2 / RFU, GMCL1 /// GMCL1P1 / Fold change vs veh, GMCL1 /// GMCL1P1 / RFU, AEBP2 / Fold change vs veh, AEBP2 / RFU, SNHG1 /// SNORD22 /// SNORD25 /// SNORD26 /// SNORD27 /// SNORD28 /// SNORD29 /// SNORD31 / Fold change vs veh, SNHG1 /// SNORD22 /// SNORD25 /// SNORD26 /// SNORD27 /// SNORD28 /// SNORD29 /// SNORD31 / Fold change (Aza/veh), C12orf56 (ProbeSet 11735607_a_at) / Fold change (ACY-1035/veh), C12orf56 (ProbeSet 11735607_a_at) / Fold change (Aza/veh), FGFR1OP (ProbeSet 11751329_s_at) / Fold change (ACY-1035/veh), FGFR1OP (ProbeSet 11751329_s_at) / Fold change (Aza/veh), VPS36 (ProbeSet 11739960_a_at) / Fold change (ACY-1035/veh), VPS36 (ProbeSet 11739960_a_at) / RFU SYPL1 (11715823_x_at) / Fold change /veh SYPL1 (11715823_x_at) / RFU IGFBP7 (11715501_s_at) / Fold change /veh IGFBP7 (11715501_s_at) / RFU REEP3 (11722064_at) / Fold change /veh REEP3 (11722064_at) / RFU IGLL1 (11728026_x_at) / Fold change /veh IGLL1 (11728026_x_at): dose or concentration left out as unconfirmed
Details: MV-4-11 cells, 48 hours

SMILES: Nc1ncn([C@@H]2O[C@H](CO)[C@@H](O)[C@H]2O)c(=O)n1 [azacitidine]
- Fold change /veh OLFML3 (11715873_a_at): 0.98
